{"source": "patent US10076519B2", "about": "(CYTOKINETICS, INC., priority 2010, dated 2018)", "data": [{"tested_on": "rabbit skeletal myofibrils (fast skeletal myofibrils)", "test": "Activation of fast skeletal myofibrils (PUMA assay, PK/LDH-coupled ATPase at pCa25)", "format": "biochemical", "conditions": "AC1.4 determined according to the procedure of Example 39; reported as class symbols", "how_it_was_run": "(§1)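 ATPase activity of Triton-washed rabbit skeletal myofibrils, roughly 90% fast fibres, tracked by NADH loss at 340 nm through a PK/LDH-coupled ADP-regenerating system. Calcium set to 25% of maximal activity (pCa25), in PIPES 12 mM pH 6.8 with 2 mM MgCl2 and 1 mM DTT; AC1.4 reported.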", "values": [{"smiles": "CC(C)(CNc1ccc(C(=O)N2CCN(C(N)=O)CC2)nn1)c1ccc(F)cc1", "Mean AC1.4": "D (D=>20 uM)"}, {"smiles": "CC(C)(CNc1ccc(C(=O)Nc2ccn[nH]2)nn1)c1ccc(F)cc1", "note": "[(6-{[2-(4-fluorophenyl)-2-methylpropyl]amino}pyridazin-3-yl)-N-pyrazol-5-ylcarboxamide]", "Mean AC1.4": "D (D=>20 uM)"}, {"smiles": "CC(C)(CNc1ccc(-c2cc(N)[nH]n2)nn1)c1ccc(F)cc1", "note": "[[6-(5-aminopyrazol-3-yl)pyridazin-3-yl][2-(4-fluorophenyl)-2-methylpropyl]amine]", "Mean AC1.4": "B (B=1-10 uM)"}, {"smiles": "CC(=O)N1CC(CNc2ccc(-c3ccc4[nH]ncc4c3)nn2)(c2ncccc2F)C1", "note": "[1-acetyl-3-(3-fluoro(2-pyridyl))-3-{[(6-(1H-indazol-5-yl)pyridazin-3-yl)amino]methyl}azetidine]", "Mean AC1.4": "D (D=>20 uM)"}, {"smiles": "CC(CNc1ccc(-c2cccc(C(N)=O)c2)nn1)N1CCCCC1", "note": "(stereo not drawn) [3-{6-[(2-piperidylpropyl)amino]pyridazin-3-yl}benzamide]", "Mean AC1.4": "D (D=>20 uM)"}, {"smiles": "CC(C)(CNc1ccc(-c2ccc3onc(N)c3c2)nn1)c1ccc(F)cc1", "note": "[[6-(3-aminobenzo[3,4-d]isoxazol-5-yl)pyridazin-3-yl][2-(4-fluorophenyl)-2-methylpropyl]amine]", "Mean AC1.4": "B (B=1-10 uM)"}, {"smiles": "CC(C)(CNc1ccc(-c2cccc(C(N)=O)c2)nn1)c1ncc(F)cc1F", "note": "[3-(6-{[2-(3,5-difluoro(2-pyridyl))-2-methylpropyl]amino}pyridazin-3-yl)benzamide]", "Mean AC1.4": "B (B=1-10 uM)"}, {"smiles": "CN(C)Cc1cccc(C(C)(C)CNc2ccc(-c3ccc4[nH]nc(N)c4c3)nn2)c1", "Mean AC1.4": "D (D=>20 uM)"}, {"smiles": "NC(=O)c1cncc(-c2ccc(NCC3(c4ccc(F)cc4)CC3)nn2)c1", "note": "[5-[6-({[(4-fluorophenyl)cyclopropyl]meth-yl}amino)pyridazin-3-yl]pyridine-3-carboxamide]", "Mean AC1.4": "B (B=1-10 uM)"}, {"smiles": "CC(C)(CNc1ccc(C(=O)NCC2CCC(=O)N2)nn1)c1ccc(F)cc1", "note": "(stereo not drawn) [(6-{[2-(4-fluorophenyl)-2-methylpropyl]amino}pyridazin-3-yl)-N-[(5-oxopyrrolidin-2-yl)methyl]carboxamide]", "Mean AC1.4": "C (C=10-20 uM)"}, {"smiles": "Nc1n[nH]c2ccc(-c3ccc(NCC4(c5ccccc5)CC4)nn3)cc12", "Mean AC1.4": "A (A=<1 uM)"}, {"smiles": "N#Cc1cccc(C2(CNc3ccc(-c4cccc(C(N)=O)c4)nn3)CCC2)n1", "Mean AC1.4": "B (B=1-10 uM)"}, {"smiles": "NC(=O)c1cccc(-c2ccc(NCCc3ccccn3)nn2)c1", "note": "[3-{6-[(2-(2-pyridyl)ethyl)amino]pyridazin-3-yl}benzamide]", "Mean AC1.4": "D (D=>20 uM)"}]}, {"tested_on": "rabbit skeletal myofibrils (fast skeletal myofibrils)", "test": "Activation of fast skeletal myofibrils (PUMA assay, PK/LDH-coupled ATPase at pCa25)", "format": "biochemical", "conditions": "median AC1.4 class, procedure of Example 39", "how_it_was_run": "as §1", "values": [{"smiles": "O=C(NCc1cnc(-c2ccc(NCC3(c4ncccc4F)CCC3)nn2)s1)[C@H]1CS(=O)(=O)CCN1", "note": "[((3S)-1,1-dioxo(1,4-thiazaperhydroin-3-yl))-N-({2-[6-({[(3-fluoro(2-pyridyl))cyclobutyl]methyl}ami-no)pyridazin-3-yl](1,3-thiazol-5-yl)}methyl)carboxamide]", "Mean AC1.4": "A (A=<1 uM)"}, {"smiles": "CC(C)(CO)Nc1ccc(-c2cccc(C(N)=O)c2)nn1", "Mean AC1.4": "D (D=>20 uM)"}, {"smiles": "Fc1cccnc1[C@]1(CNc2ccc(-c3cccc(-c4nn[nH]n4)c3)nn2)C[C@@H](F)C1", "note": "[[6-(3-(2H-1,2,3,4-tetraazol-5-yl)phenyl)pyridazin-3-yl]{[3-fluoro-1-(3-fluoro(2-pyridyl))cyclobutyl]methyl}amine]", "Mean AC1.4": "A (A=<1 uM)"}, {"smiles": "CS(=O)(=O)Nc1cccc(-c2ccc(NC3(c4ncccc4F)CCC3)nn2)c1", "Mean AC1.4": "B (B=1-10 uM)"}, {"smiles": "Nc1ncc(-c2ccc(NCC3(c4ncccc4F)CCC3)nn2)cc1F", "note": "[[6-(6-amino-5-fluoro(3-pyridyl))pyridazin-3-yl]{[(3-fluoro(2-pyridyl))cyclobutyl]methyl}amine]", "Mean AC1.4": "A (A=<1 uM)"}, {"smiles": "NC(=O)c1ncccc1-c1ccc(NCC2(c3ncccc3F)CCC2)nn1", "Mean AC1.4": "C (C=10-20 uM)"}, {"smiles": "CCOC(=O)C(C(=O)OCC)c1ccc(NCC2(c3ncccc3F)CCC2)nn1", "Mean AC1.4": "D (D=>20 uM)"}, {"smiles": "CC(C)(Nc1ccc(-c2cc(C(N)=O)ccc2F)nn1)c1ncccc1F", "note": "[4-fluoro-3-(6-{[1-(3-fluoro(2-pyridyl))-isopropyl]amino}pyridazin-3-yl)benzamide]", "Mean AC1.4": "B (B=1-10 uM)"}, {"smiles": "O=C(N[C@H]1CCNC1)c1cnc(-c2ccc(NCC3(c4ncccc4F)CCC3)nn2)s1", "note": "[N-((3S)pyrrolidin-3-yl){2-[6-({[(3-fluoro(2-pyridyl))cyclobutyl]methyl}ami-no)pyridazin-3-yl](1,3-thiazol-5-yl)}carboxamide]", "Mean AC1.4": "A (A=<1 uM)"}, {"smiles": "N#Cc1cnc(-c2ccc(NCC3(c4ncccc4F)CCC3)nn2)s1", "note": "[2-[6-({[(3-fluoro-2-pyridyl)cyclobutyl]methyl}ami-no)pyridazin-3-yl]-1,3-thiazole-5-carbonitrile]", "Mean AC1.4": "B (B=1-10 uM)"}, {"smiles": "CC(C)(CNc1ccc(-c2cc(C#N)ccc2F)nn1)c1ncccc1Cl", "note": "[3-(6-{[2-(3-chloro(2-pyridyl))-2-methylpropyl]amino}pyridazin-3-yl)-4-fluorobenzenecarbonitrile]", "Mean AC1.4": "B (B=1-10 uM)"}, {"smiles": "N#Cc1ccc(-c2ccc(NCC3(c4ncccc4F)CCC3)nn2)s1", "note": "[5-[6-({[(3-fluoro-2-pyridyl)cyclobutyl]methyl}ami-no)pyridazin-3-yl]thiophene-2-carbonitrile]", "Mean AC1.4": "B (B=1-10 uM)"}, {"smiles": "COc1ccc(C2(Nc3ccc(-c4cc(C(N)=O)ccc4F)nn3)CCC2)nc1", "Mean AC1.4": "D (D=>20 uM)"}, {"smiles": "CC(C)(Nc1ccc(-c2ccc3[nH]ncc3c2)nn1)c1ccccc1", "note": "[(6-(1H-indazol-5-yl)pyridazin-3-yl)(1-methyl-1-phenylethyl)amine]", "Mean AC1.4": "B (B=1-10 uM)"}, {"smiles": "O=C1NCc2cc(-c3ccc(NCC4(c5ncccc5F)CCC4)nn3)sc21", "note": "[2-[6-({[(3-fluoro-2-pyridyl)cyclobutyl]methyl}ami-no)pyridazin-3-yl]thiopheno[2,3-c]3-pyrrolin-6-one]", "Mean AC1.4": "B (B=1-10 uM)"}]}, {"tested_on": "rabbit skeletal myofibrils (fast skeletal myofibrils)", "test": "Activation of fast skeletal myofibrils (PUMA assay, PK/LDH-coupled ATPase at pCa25)", "format": "biochemical", "conditions": "median AC1.4 reported as class; procedure of Example 39", "how_it_was_run": "as §1", "values": [{"smiles": "Fc1cccnc1C1(CNc2ccc(Cc3ccccc3)nn2)CCC1", "note": "[{[(3-fluoro(2-pyridyl))cyclobutyl]methyl}[6-benzylpyridazin-3-yl]amine]", "Mean AC1.4": "D (D=>20 uM)"}, {"smiles": "NC(=O)Cc1csc(-c2ccc(NCC3(c4ncccc4F)CCC3)nn2)n1", "note": "[2-{2-[6-({[(3-fluoro-2-pyridyl)cyclobutyl]methyl}ami-no)pyridazin-3-yl]-1,3-thiazol-4-yl}acetamide]", "Mean AC1.4": "D (D=>20 uM)"}, {"smiles": "NC(=O)c1cc(-c2ccc(NC[C@]3(c4ncccc4F)C[C@H](F)C3)nn2)c(F)cc1O", "note": "[4-fluoro-5-[6-({[3-fluoro-1-(3-fluoro(2-pyridyl))cyclobutyl]methyl}ami-no)pyridazin-3-yl]-2-hydroxybenzamide]", "Mean AC1.4": "A (A=<1 uM)"}, {"smiles": "CC(=O)NCc1cccc(-c2ccc(NC[C@]3(c4ncccc4F)C[C@H](F)C3)nn2)c1", "note": "[N-({3-[6-({[3-fluoro-1-(3-fluoro(2-pyridyl))cyclobutyl]methyl}ami-no)pyridazin-3-yl]phenyl}methyl)acetamide]", "Mean AC1.4": "B (B=1-10 uM)"}, {"smiles": "O=C(NC(CO)CO)c1cccc(-c2ccc(NC[C@]3(c4ncccc4F)C[C@H](F)C3)nn2)c1", "note": "[{3-[6-({[3-fluoro-1-(3-fluoro(2-pyridyl))cyclobutyl]methyl}ami-no)pyridazin-3-yl]phenyl}-N-[2-hydroxy-1-(hydroxymethyl)ethyl]carboxamide]", "Mean AC1.4": "B (B=1-10 uM)"}, {"smiles": "CCNC(=O)c1ccc(F)c(-c2ccc(NC[C@]3(c4ncccc4F)C[C@H](F)C3)nn2)c1", "note": "[N-ethyl{4-fluoro-3-[6-({[3-fluoro-1-(3-fluoro(2-pyridyl))cyclobutyl]methyl}ami-no)pyridazin-3-yl]phenyl}carboxamide]", "Mean AC1.4": "B (B=1-10 uM)"}, {"smiles": "CN(C)C(=O)c1ccc(F)c(-c2ccc(NC[C@]3(c4ncccc4F)C[C@H](F)C3)nn2)c1", "note": "[{4-fluoro-3-[6-({[3-fluoro-1-(3-fluoro(2-pyridyl))cyclobutyl]methyl}ami-no)pyridazin-3-yl]phenyl}-N,N-dimethylcarboxamide]", "Mean AC1.4": "B (B=1-10 uM)"}, {"smiles": "CN1CC(NC(=O)c2cccc(-c3ccc(NC[C@]4(c5ncccc5F)C[C@H](F)C4)nn3)c2)C1", "note": "[{3-[6-({[3-fluoro-1-(3-fluoro(2-pyridyl))cyclobutyl]methyl}ami-no)pyridazin-3-yl]phenyl}-N-(1-methylazetidin-3-yl)carboxamide]", "Mean AC1.4": "B (B=1-10 uM)"}]}]}
